Experimental findings from patent publication US12498375B2, “Water-soluble compound for detection of beta-amyloid” (KOREA ATOMIC ENERGY RESEARCH INSTITUTE, priority 2020, dated 2025) are described below.

Structures are written as SMILES.

In one data set the target is T1, Ab42 fibrils (Homo sapiens, UniProt P05067).
T1 construct: 10 μM of Ab42 fibrils
Description: Measurement of maximum excitation and emission wavelengths (SpectraMax M2). In kind it is physicochemical. The settings on record: 10 μM Ab42 fibrils, 5 μM compound, PBS buffer. As for the experimental part: The maximum excitation and emission wavelengths λmax of the Compounds 1, 2, 4, and 5 according to the present invention were measured by SpectraMax M2 (molecular devices). 10 μM of Ab42 fibrils and 5 μM of each compound, produced by the aforementioned method, as final concentrations were used in a PBS buffer solution. In general, the excitation λmax is determined by scanning the fixed first emission, and the emission λmax is determined by scanning the excitation spectrum with the fixed λmax. The absorbance of each of the Compound 1, Compound 2, Compound 4, and Compound 5 synthesized above was measured, and the results thereof are shown in FIG. 2.

For data set [1], the target named is T2, beta-amyloid (Aβ42 aggregate) (Homo sapiens, UniProt P05067).
T2 construct: 10 μM of Ab42 fibrils
Kind of data set: Evaluation of activity (fluorescence) before and after binding to beta-amyloid. The settings on record: for Change in fluorescence intensity after binding to beta-amyloid: before vs after binding to Aβ42 aggregate; for Faβ/F0 (fluorescence reactivity to the Aβ peptide): before vs after binding to Aβ peptide. As for the experimental part:
Regarding each of the Compound 1, Compound 2, Compound 4, and Compound 5 synthesized above, the activity before and after binding to beta-amyloid was evaluated, and the results thereof are shown in FIG. 3. […] Moreover, the absorption wavelengths of each of the Compound 1, Compound 2, Compound 4, and Compound 5 before and after binding to beta-amyloid are shown in Table 2 below. […] In particular, regarding the fluorescence reactivity to the Aβ peptide, the Faβ/F0 values of the Compounds 1, 2, 4, and 5 were 4.3, 11.6, 3.1, and 9.6, respectively, indicating high fluorescence properties (see Table 2 below). Furthermore, from FIG. 3, it was confirmed that there was a clear difference in the emission wavelength before and after the compound according to the present invention bound to the amyloid plaque.

The nature of data set [2]: Retina-targeting experiment in laboratory mouse (IVIS spectrum CT imaging). Particulars: 8 mg/kg tail vein, 3-month-old nude mouse. In kind it is in vivo. How it is done: A water-soluble Compound 1 (8 mg/kg) was injected into the tail vein of a 3-month-old nude mouse, and imaging was carried out with an IVIS spectrum CT system device, and the results thereof are shown in FIG. 4.

T1 sequence (P05067 672-713 limits assumed): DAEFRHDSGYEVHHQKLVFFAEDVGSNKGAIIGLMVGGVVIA
T2 sequence (P05067 672-713 limits assumed): as above

On Ab42 fibrils, `CN(C)c1ccc(/C=C/C2=[N+](CCCCS(=O)(=O)[O-])c3ccc4ccccc4c3C2(C)C)cc1` [Compound 1] displayed a λem of 620 nm and a λex of 560 nm. Further, in data set [1], the “Change in fluorescence intensity after binding to beta-amyloid” value (from here on “Change in fluorescence intensity”) was 4.3 fold and the “Faβ/F0 (fluorescence reactivity to the Aβ peptide)” value (from here on “Faβ/F0”) amounted to 4.3. Moreover, in data set [2] (1 minute after intravenous injection), the “fluorescence signal in the eye of mouse” value is “strong fluorescence signal”. The “fluorescence signal in the eye of mouse” value in data set [2] (10 minutes after intravenous injection) is “weak fluorescence signal”.

With `CN(C)c1ccc(-c2ccc(/C=C/C3=[N+](CCCCS(=O)(=O)[O-])c4ccc5ccccc5c4C3(C)C)s2)cc1` [Compound 2, (E)-4-(2-(2-(5-(4-(dimethylamino)phenyl)thiophen-2-yl)vinyl)-1,1-dimethyl-1H-benzo[e]indol-3-ium-3-yl)butane-1-sulfonate], on Ab42 fibrils, the λem is recorded as 765 nm and the λex came to 805 nm. In data set [1], the “Change in fluorescence intensity” value stood at 11.6 fold and the “Faβ/F0” value worked out at 11.6.

As for `CC1(C)C(/C=C/c2ccc(N3CCNCC3)cc2)=[N+](CCCCS(=O)(=O)[O-])c2ccc3ccccc3c21` [Compound 4, (E)-4-(1,1-dimethyl-2-(4-(piperazin-1-yl)styryl)-1H-benzo[e]indol-3-ium-3-yl)butane-1-sulfonate], on Ab42 fibrils, the λem was 620 nm and the λex amounted to 570 nm. Moreover, in data set [1], the “Change in fluorescence intensity” value came to 3.1 fold and the “Faβ/F0” value is reported as 3.1.

On to `CNc1ccc(-c2ccc(/C=C/C3=[N+](CCCCS(=O)(=O)[O-])c4ccc5ccccc5c4C3(C)C)s2)cc1` [Compound 5, (E)-4-(1,1-dimethyl-2-(2-(5-(4-(methylamino)phenyl)thiophen-2-yl)vinyl)-1H-benzo[e]indol-3-ium-3-yl)butane-1-sulfonate], for which, on Ab42 fibrils, the λem is 760 nm and the λex came out at 575 nm. In data set [1], the “Change in fluorescence intensity” value is reported as 9.6 fold and the “Faβ/F0” value is 9.6.
